Like-named read-outs stand apart in the source and are kept apart here.
How the values were obtained:
[1] = system: various cancer cell lines as described in Table 21; test: Cell proliferation inhibitory effect on human cancer-derived cancer cell lines (method of Test Example 2); type: cell-based
Method: Human derived breast cancer cell line HCC 1806 cells were daily passaged at a cell density not exceeding 80% in ATCC recommended Roswell Park Memorial Institute medium (RPMI-1640) containing 10% fetal bovine serum (FBS). In order to start the test of cell proliferation inhibitory activity, HCC 1806 cells were suspended in the above medium, after seeing at 180 μL in each well of a 96-well flat bottom plate so that the number of cells per well was 2,000, the cells were cultured at 37° C. for 1 day in an incubator containing 5% carbon dioxide gas. On the next day, the test compound was dissolved in DMSO, and 20 μL of a drug additive solution diluted serially with distilled water to 10 times of the final concentration was added to each well of the culture plate of the cells, and the cells were cultured at 37° C. for 72 hours in an incubator containing 5% carbon dioxide gas. After culturing for 72 hours, 20 μL of glutaraldehyde was added to each well and allowed to stand for 30 minutes, then the plate was washed 10 times with water and was dried. 100 μL of a stain solution (0.05% crystal violet in a 20% methanol solution) was added to each well and allowed to stand for 30 minutes, then the plate was washed 10 times with water and was dried. 100 μL of an extract solution (0.1 N NaH2PO4: 100% ethanol=1:1) was added to each well and mixed, and the mixture was measured at a wavelength of 540 nm using a plate reader (MTP-450 manufactured by Corona Electric Co., Ltd.). The growth inhibition rate was calculated from the following formula, and the concentration (IC50 (μM)) of a test compound inhibiting 50% was determined. Growth inhibition rate (%)={(C−B)−(T−B)}/(C−B)×100
According to the method of Test Example 2, the cell proliferation inhibitory effect on various cancer cell lines as described in Table 21 was evaluated.

HCC 1806 cells = test: Cell proliferation inhibitory effect on human breast cancer cell line (crystal violet, 72 hours); type: cell-based; details: read-out: Cell growth suppression IC50
In short: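 Cells were seeded at 2,000/well in RPMI-1640 with 10% FBS and grown 1 day, then exposed to compound for 72 h at 37° C, 5% CO2. After glutaraldehyde fixation and 0.05% crystal violet staining, extracted dye was read at 540 nm. IC50 (μM) came from growth inhibition relative to untreated and cell-free wells.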

[2] = target: Human RNR (human M1 subunit and human M2 subunit) (Homo sapiens (Human), UniProt P23921); test: Human RNR inhibition effect (formation of dCDP from CDP, HPLC); type: biochemical
Sequence of Human RNR (human M1 subunit and human M2 subunit) (P23921 whole entry): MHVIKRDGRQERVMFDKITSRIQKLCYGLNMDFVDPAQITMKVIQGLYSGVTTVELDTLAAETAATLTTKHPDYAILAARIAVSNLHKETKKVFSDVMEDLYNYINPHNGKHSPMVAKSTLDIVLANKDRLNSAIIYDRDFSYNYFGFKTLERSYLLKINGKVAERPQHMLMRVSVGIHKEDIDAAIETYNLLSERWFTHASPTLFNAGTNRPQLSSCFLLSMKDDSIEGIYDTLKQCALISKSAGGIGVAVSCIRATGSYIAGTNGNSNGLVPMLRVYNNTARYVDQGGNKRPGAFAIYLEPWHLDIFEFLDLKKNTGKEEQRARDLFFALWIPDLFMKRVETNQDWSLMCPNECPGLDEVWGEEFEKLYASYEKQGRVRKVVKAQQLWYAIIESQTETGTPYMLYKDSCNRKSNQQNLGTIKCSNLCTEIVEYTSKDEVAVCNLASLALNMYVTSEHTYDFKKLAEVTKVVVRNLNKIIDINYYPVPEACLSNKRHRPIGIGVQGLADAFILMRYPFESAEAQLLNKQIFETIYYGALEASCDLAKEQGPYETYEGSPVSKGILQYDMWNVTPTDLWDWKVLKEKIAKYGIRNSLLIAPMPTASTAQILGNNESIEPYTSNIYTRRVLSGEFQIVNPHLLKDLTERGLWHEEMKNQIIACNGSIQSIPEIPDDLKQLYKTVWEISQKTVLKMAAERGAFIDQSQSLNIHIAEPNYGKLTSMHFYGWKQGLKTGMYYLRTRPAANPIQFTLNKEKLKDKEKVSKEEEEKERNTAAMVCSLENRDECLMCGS
Method: The inhibitory activity against the ribonucleotide reduction reaction (hereinafter referred to as RNR reaction) of the test compound was determined by measuring the formation of deoxycytidine diphosphate (hereinafter referred to as dCDP) from cytidine diphosphate (hereinafter referred to as CDP) by the following method.
Human M1 subunit and human M2 subunit (mutant lacking amino terminal 59 amino acids), which are fused a histidine tag at the amino terminus, are overexpressed in Escherichia coli and are solubilized after collection, and histidine tagged human M1 and M2 proteins were purified on a nickel chelate column.
First, test compounds were serially diluted with DMSO. Next, human M1 protein and human M2 protein were added to an aqueous albumin solution derived from 0.02% fetal bovine serum, a DMSO solution of the compound of the present invention or the control DMSO solution (final concentration of DMSO was 1%) was added, and the mixture was allowed to stand for 20 minutes. Thereafter, the reaction buffer [50 mM HEPES buffer (pH 7.2) at the final concentration, 4 mM magnesium acetate at the final concentration, 100 mM potassium chloride at the final concentration, 6 mM dithiothreitol at the final concentration, 2 mM adenosine triphosphate at the final concentration, 0.24 mM nicotinamide adenine dinucleotide phosphate at final concentration] and 10 μM CDP at the final concentration were added and incubated at 37° C. for 30 minutes to perform RNR reaction. Immediately after the reaction, the reaction was stopped by heating at 100° C. for 15 minutes, followed by centrifugation at 10,000 rpm for 10 minutes. After the centrifugation, a portion (5 μL) of the resulting supernatant was analyzed with a high performance liquid chromatography (Shimadzu Corporation, Prominence) using Shim-pack XR-ODS (manufactured by Shimadzu GLC Co., 3.0×100 mm).

[3] = A673, Ewing's sarcoma, 2000 cell/well, read-out: cell proliferation inhibitory effect, A673
[4] = A2780, Ovarian Cancer, 2000 cell/well, read-out: cell proliferation inhibitory effect, A2780
[5] = ACHN, Kidney Cancer, 2000 cell/well, read-out: cell proliferation inhibitory effect, ACHN
[6] = CFPAC-1, Pancreatic Cancer, 2000 cell/well, read-out: cell proliferation inhibitory effect, CFPAC-1
[7] = DU-145, DU145, Prostate Cancer, 5000 cell/well, read-out: cell proliferation inhibitory effect, DU145
[8] = GB-1, Glioblastoma, 3000 cell/well, read-out: cell proliferation inhibitory effect, GB-1
[9] = HCT-116, HCT116, Colorectal Cancer, 1000 cell/well, read-out: cell proliferation inhibitory effect, HCT116
[10] = HLE, Liver Cancer, 3000 cell/well, read-out: cell proliferation inhibitory effect, HLE
[11] = MSTO-211H, Mesothelioma, 6000 cell/well, read-out: cell proliferation inhibitory effect, MSTO-211H
[12] = NCI-H460, Lung Cancer, 1000 cell/well, read-out: cell proliferation inhibitory effect, NCI-H460
[13] = NCI-H2170, Lung Cancer, 5000 cell/well, read-out: cell proliferation inhibitory effect, NCI-H2170
[14] = NCI-H2228, Lung Cancer, 5000 cell/well, read-out: cell proliferation inhibitory effect, NCI-H2228
[15] = NUGC-3, Stomach Cancer, 2000 cell/well, read-out: cell proliferation inhibitory effect, NUGC-3
[16] = RPMI7932, Melanoma, 4000 cell/well, read-out: cell proliferation inhibitory effect, RPMI7932
[17] = human M1 and M2 subunits, formation of dCDP from CDP, read-out: RNR Enzyme inhibitory activity IC50

SMILES | IC50 (HCC 1806 cells; Homo sapiens, HCC1806, 72 h) [nM] | IC50 ([2]; human M1 and M2 proteins, 10 μM CDP, 37° C. for 30 minutes, read-out: IC50 (concentration inhibiting the RNR reaction by 50%)) [nM] | IC50 [2, 17] [nM] | IC50 [1, 3] [nM] | IC50 [1, 4] [nM] | IC50 [1, 5] [nM] | IC50 [1, 6] [nM] | IC50 [1, 7] [nM] | IC50 [1, 8] [nM] | IC50 [1, 9] [nM] | IC50 [1, 10] [nM] | IC50 [1, 11] [nM] | IC50 [1, 12] [nM] | IC50 [1, 13] [nM] | IC50 [1, 14] [nM] | IC50 [1, 15] [nM] | IC50 [1, 16] [nM] | IC50 (HCC 1806 cells) [nM]
Cc1c(Br)ccc(F)c1[C@@H](C)[C@H](NS(=O)(=O)c1ccc(Cl)c2c1OCCC2(C)O)c1n[nH]c(=O)o1 (single isomer, unassigned) [Example 222A] | – | – | – | 250 | 190 | 170 | 230 | 260 | 460 | 270 | 200 | 270 | 180 | 520 | 480 | 360 | 510 | 60
Cc1ccc(S(=O)(=O)NC(Cc2ccccc2)c2nnc(S)o2)cc1 (stereo not shown) [Comparative Example 1, reference compound] | – | 43000 | – | – | – | – | – | – | – | – | – | – | – | – | – | – | – | –
Cc1ccc(F)c([C@@H](C)[C@H](NS(=O)(=O)c2ccc(Cl)c3c2OCCC3O)c2n[nH]c(=O)o2)c1C (single isomer, unassigned) [Example 235A] | – | – | – | 610 | 400 | 380 | 350 | 530 | 1120 | 480 | 420 | 390 | 350 | 1100 | 880 | 710 | 1230 | 130
Cc1ccc(F)c([C@@H](C)[C@H](NS(=O)(=O)c2ccc(Br)cc2C(N)=O)c2n[nH]c(=O)o2)c1C [Example 1, 5-bromo-2-(N-((1 S,2R)-2-(6-fluoro-2,3-dimethylphenyl)-1-(5-oxo-4,5-dihydro-1,3,4-oxadiazol-2-yl)propyl)sulfamoyl)benzamide] | 160 | – | – | 920 | 630 | 680 | 540 | 730 | 1560 | 750 | 560 | 650 | 570 | 1410 | 1350 | 1120 | 1740 | –
Cc1c(Cl)ccc(F)c1[C@@H](C)[C@H](NS(=O)(=O)c1ccc(Cl)c2c1OCCC2(C)O)c1n[nH]c(=O)o1 (single isomer, unassigned) [Example 209A] | – | – | – | 320 | 300 | 220 | 330 | 310 | 640 | 280 | 260 | 320 | 250 | 570 | 730 | 400 | 720 | 60
[2H]C([2H])([2H])C1(O)CCOc2c(S(=O)(=O)N[C@H](c3n[nH]c(=O)o3)[C@H](C)c3c(F)ccc(C)c3C)ccc(Cl)c21 (single isomer, unassigned) [Example 200A] | – | – | – | 180 | 130 | 130 | 170 | 170 | 370 | 220 | 140 | 170 | 130 | 490 | 500 | 270 | 430 | 50
[2H]C([2H])([2H])C1(O)CCOc2c(S(=O)(=O)N[C@H](c3n[nH]c(=O)o3)[C@H](C)c3c(F)ccc(Cl)c3C)ccc(Cl)c21 (single isomer, unassigned) [Example 228A] | 140 | – | – | 400 | 380 | 320 | 360 | 340 | 850 | 380 | 290 | 370 | 310 | 880 | 740 | 510 | 650 | –

Further lines, with some results ahead:

IC50 (HCC 1806 cells; Homo sapiens, HCC1806, 72 h) [nM] | IC50 ([2]; human M1 and M2 proteins, 10 μM CDP, 37° C. for 30 minutes, read-out: IC50 (concentration inhibiting the RNR reaction by 50%)) [nM] | IC50 [2, 17] [nM] | SMILES | IC50 [1, 3] [nM] | IC50 [1, 4] [nM] | IC50 [1, 5] [nM] | IC50 [1, 6] [nM] | IC50 [1, 7] [nM] | IC50 [1, 8] [nM] | IC50 [1, 9] [nM] | IC50 [1, 10] [nM] | IC50 [1, 11] [nM] | IC50 [1, 12] [nM] | IC50 [1, 13] [nM] | IC50 [1, 14] [nM] | IC50 [1, 15] [nM] | IC50 [1, 16] [nM] | IC50 (HCC 1806 cells) [nM]
640 | – | – | CCc1ccc(F)c([C@@H](C)[C@H](NS(=O)(=O)c2ccc(Cl)cc2C(N)=O)c2n[nH]c(=O)o2)c1C [Example 11, 5-chloro-2-(N-((1S,2R)-2-(3-ethyl-6-fluoro-2-methylphenyl)-1-(5-oxo-4,5-dihydro-1,3,4-oxadiazol-2-yl)propyl)sulfamoyl)benzamide] | 2560 | 2080 | 1500 | 1710 | 1840 | 5220 | 2300 | 1740 | 1540 | 1500 | 3900 | 3210 | 3110 | 4740 | –
200 | – | – | Cc1ccc(F)c([C@@H](C)[C@H](NS(=O)(=O)c2ccc(Cl)cc2C(N)=O)c2n[nH]c(=O)o2)c1C [Example 5] | 1090 | 830 | 750 | 940 | 1040 | 1570 | 910 | 790 | 700 | 730 | 1890 | 1270 | 1220 | 2670 | –
– | – | 240 | COc1cc(Cl)ccc1S(=O)(=O)N[C@H](c1n[nH]c(=O)o1)[C@H](C)c1c(F)ccc(-c2ccn(C)n2)c1C [Example 305, 4-chloro-N-((1S,2R)-2-(6-fluoro-2-methyl-3-(1-methyl-1H-pyrazol-3-yl)phenyl)-1-(5-oxo-4,5-dihydro-1,3,4-oxadiazol-2-yl)propyl)-2-methoxybenzenesulfonamide] | – | – | – | – | – | – | – | – | – | – | – | – | – | – | –
560 | – | – | Cc1c(Cl)ccc(F)c1[C@@H](C)[C@H](NS(=O)(=O)c1ccc(Cl)cc1C(N)=O)c1n[nH]c(=O)o1 [Example 14, 5-chloro-2-(N-((1S,2R)-2-(3 chloro-6-fluoro-2-methylphenyl)-1-(5oxo-4,5-dihydro-1,3,4-oxadiazol-2-yl)propyl)sulfamoyl)benzamide] | 1850 | 1710 | 980 | 1420 | 2220 | 4600 | 2200 | 1300 | 1580 | 1350 | 4180 | 3530 | 2830 | 3210 | –
600 | – | 120 | Cc1ccc(F)c([C@@H](C)[C@H](NS(=O)(=O)c2ccc(C(F)(F)F)c3c2OCCC3(C)O)c2n[nH]c(=O)o2)c1C (single isomer, unassigned) [Example 225A] | – | – | – | – | – | – | – | – | – | – | – | – | – | – | –

Reference: US10889555B2, “Sulfonamide compound or salt thereof” (Taiho Pharmaceutical Co., Ltd., priority 2016, dated 2021)
